Values joined by “and” are separate entries in the source; they are usually repeats but may differ in a detail not shown here. Equal entries are not always repeated.
Legend:
[1] = ACT001-CN-002 Phase II clinical trial, safety assessment (peripheral blood lymphopenia)
Protocol: GBM patients who relapsed after standard treatment were randomly assigned to three cohorts of an ACT001-CN-002 Phase II clinical trial: • Cohort A: ACT001 monotherapy (400 mg, BID); • Cohort B: ACT001 and TMZ (temozolomide) were administered in combination at doses of 400mg, BID (ACT001) and 200 mg/m^2/day (TMZ, administered on days one to five of each 28-day course of treatment), respectively; • Cohort C: CCNU monotherapy (lomustine, 100-130 mg/m^2/dose, once every six weeks, 4 doses at most) or TMZ monotherapy (the dosage level and the route of administration were the same as those for cohort B).
The trial endpoints were post-dose progression-free survival (iRANO criteria), one-year survival rate, and safety assessment: the number of times each safety event occurred (e.g., the incidence of peripheral blood lymphopenia). The exploratory endpoints included changes in the peripheral blood suppressive Treg lymphocyte ratio.

[2] = system: peripheral blood suppressive Treg lymphocytes; assay: ACT001-CN-002 Phase II clinical trial, exploratory endpoint: peripheral blood Treg ratio; format: in vivo, patients; details: one line per patient; for Peripheral blood Treg ratio (before treatment): first figure of the cell; for Peripheral blood Treg ratio (after treatment): second figure of the cell
GBM = assay: ACT001-CN-002 Phase II clinical trial, efficacy (best response, iRANO criteria); format: in vivo, patients; details: one line per patient; duration of stable disease

Row | Compound | Grade 3 or higher lymphopenia ([1]; human, in vivo) | Peripheral blood Treg ratio (before treatment) [2] | Peripheral blood Treg ratio (after treatment) [2] | Best response time (months) (GBM) | Grade 3 or higher lymphopenia ([1]; one line per patient)
1 | CC1=C2CC[C@@](C)(O)[C@@H]2[C@H]2OC(=O)[C@@H](CN(C)C)[C@@H]2CC1 [ACT001] | No | 3.2 and 8.7 and 5.9 and 6.9 and 2.4 | 8.4 and 6.5 and 6.7 and 1.8 and 9.4 | 9 months and 4 months | 
2 | O=NN(CCCl)C(=O)NC1CCCCC1 [CCNU, lomustine] |  | 6.6 and 5.6 and 11.4 | 12.4 and 7.3 and 9.5 | 6 months | No (2×) and Yes
3 | Cn1nnc2c(C(N)=O)ncn2c1=O [TMZ, temozolomide] |  | 4.3 and 7.1 | 14.3 and 7.5 | 7 months and 4 months | 
